The source of these data is ChEMBL document CHEMBL3745697, “Identification of azabenzimidazoles as potent JAK1 selective inhibitors” (Bioorg Med Chem Lett, 2016).

As usually defined, the IC50 is the concentration that gives 50% inhibition. A word on the inhibition in vivo: it is the change of the read-out against control, counted positive when it falls.

The source made the active and inactive calls. No cut-off for these calls is given here.

Experiment [1] is described as follows: Cell cycle arrest in human SW620 cells assessed as multi-nuclear cells at 1 uM after 24 hrs by propidium iodide staining-based flow cytometric analysis (reference value: 5%). The experiment is classed as functional. The note with it: SW-620. In general terms: Flow cytometry measures light scatter and fluorescence of single cells or particles in a stream.
A short description of experiment [2]: Cell cycle arrest in human SW620 cells assessed as accumulation at Sub G1 phase at 10 uM after 24 hrs by propidium iodide staining-based flow cytometric analysis (reference value: 1.6%). The note with it: SW-620. It is filed as functional.
A short description of experiment [3]: Cell cycle arrest in human SW620 cells assessed as accumulation at Sub G1 phase at 1 uM after 24 hrs by propidium iodide staining-based flow cytometric analysis (reference value: 1.6%). It is filed as functional. The note with it: SW-620.
Experiment [4] is described as follows: Cell cycle arrest in human SW620 cells assessed as accumulation at S phase at 1 uM after 24 hrs by propidium iodide staining-based flow cytometric analysis (reference value: 13.9%). It is filed as functional. The note with it: SW-620.
Experiment [5] can be described thus: Cell cycle arrest in human SW620 cells assessed as accumulation at G2/M phase at 10 uM after 24 hrs by propidium iodide staining-based flow cytometric analysis (reference value: 17.4%). The settings on record: SW-620. It is filed as functional.
Experiment [6] is described as follows: Cell cycle arrest in human SW620 cells assessed as accumulation at S phase at 10 uM after 24 hrs by propidium iodide staining-based flow cytometric analysis (reference value: 13.9%). It is filed as functional. The settings on record: SW-620.
The nature of experiment [7]: Cell cycle arrest in human SW620 cells assessed as accumulation at G1 phase at 10 uM after 24 hrs by propidium iodide staining-based flow cytometric analysis (reference value: 61.4%). The settings on record: SW-620. The experiment is classed as functional.
The nature of experiment [8]: Cell cycle arrest in human SW620 cells assessed as accumulation at G1 phase at 1 uM after 24 hrs by propidium iodide staining-based flow cytometric analysis (reference value: 61.4%). The experiment is classed as functional. The note with it: SW-620.
The nature of experiment [9]: Cell cycle arrest in human SW620 cells assessed as multi-nuclear cells at 10 uM after 24 hrs by propidium iodide staining-based flow cytometric analysis (reference value: 5%). The settings on record: SW-620. It is filed as functional.
The nature of experiment [10]: Cell cycle arrest in human SW620 cells assessed as accumulation at G2/M phase at 1 uM after 24 hrs by propidium iodide staining-based flow cytometric analysis (reference value: 17.4%). The experiment is classed as functional. The note with it: SW-620.
Experiment [11] deals with T1, Tyrosine-protein kinase JAK1 (Homo sapiens, UniProt P23458). Put plainly: Inhibition of N-terminal GST-fused human recombinant JAK1 (866 to 1154 residues) expressed in insect cells using FITC-C6-KKHTDDGYMPMSPGVA-NH2 as substrate by microfluidic capillary electrophoresis method.
The target of experiment [12] is T2, Tyrosine-protein kinase JAK2 (Homo sapiens, UniProt O60674). Put plainly: Inhibition of JAK2 in human HEL 92.1.7 cells assessed as reduction in STAT5 phosphorylation after 2 hrs by Western blot analysis. It is filed as cell-based. On the technique in general: A western blot detects proteins with antibodies after separation by electrophoresis.
The target of experiment [13] is T3, Tyrosine-protein kinase JAK3 (Homo sapiens, UniProt P52333).
T3 sequence (P52333 whole entry): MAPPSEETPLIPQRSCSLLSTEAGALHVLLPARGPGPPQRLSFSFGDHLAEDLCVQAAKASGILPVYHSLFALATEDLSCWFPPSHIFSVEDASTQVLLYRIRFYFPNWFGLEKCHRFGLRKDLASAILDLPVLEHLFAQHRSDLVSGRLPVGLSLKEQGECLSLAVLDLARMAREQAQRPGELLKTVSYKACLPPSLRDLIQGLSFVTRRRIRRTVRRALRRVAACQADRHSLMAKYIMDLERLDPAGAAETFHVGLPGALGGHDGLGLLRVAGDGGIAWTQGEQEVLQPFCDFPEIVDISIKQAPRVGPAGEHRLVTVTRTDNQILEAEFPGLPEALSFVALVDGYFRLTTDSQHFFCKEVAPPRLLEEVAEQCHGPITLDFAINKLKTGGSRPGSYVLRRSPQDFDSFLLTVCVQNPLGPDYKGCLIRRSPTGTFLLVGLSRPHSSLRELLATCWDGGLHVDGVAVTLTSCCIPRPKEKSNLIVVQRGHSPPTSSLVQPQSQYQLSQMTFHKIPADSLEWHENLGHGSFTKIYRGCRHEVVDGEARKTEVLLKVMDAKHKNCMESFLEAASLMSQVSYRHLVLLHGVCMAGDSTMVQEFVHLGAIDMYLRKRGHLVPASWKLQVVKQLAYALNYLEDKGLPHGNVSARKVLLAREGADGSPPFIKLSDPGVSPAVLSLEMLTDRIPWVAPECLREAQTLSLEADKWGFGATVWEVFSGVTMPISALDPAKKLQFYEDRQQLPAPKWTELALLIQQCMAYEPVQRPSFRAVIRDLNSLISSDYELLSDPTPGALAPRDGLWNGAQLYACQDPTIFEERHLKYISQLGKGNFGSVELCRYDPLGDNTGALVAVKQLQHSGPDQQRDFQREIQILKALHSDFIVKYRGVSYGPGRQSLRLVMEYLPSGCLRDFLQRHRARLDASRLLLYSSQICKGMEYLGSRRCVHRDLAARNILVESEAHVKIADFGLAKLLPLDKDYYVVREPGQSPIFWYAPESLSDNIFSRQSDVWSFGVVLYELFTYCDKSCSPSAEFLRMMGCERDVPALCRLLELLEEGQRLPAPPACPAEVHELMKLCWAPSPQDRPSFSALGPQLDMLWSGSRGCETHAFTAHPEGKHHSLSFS
Nature of the experiment: Inhibition of N-terminal GST-fused recombinant JAK3 (781 to 1124 residues) (unknown origin) expressed in insect cells using 5FAM-GEEPLYWSFPAKKK-NH2 as substrate by microfluidic capillary electrophoresis method.

Experiment [14] addresses T1, Tyrosine-protein kinase JAK1. Put plainly: Inhibition of JAK1 in human NCI-H1975 cells assessed as reduction in STAT3 phosphorylation at 0.003 to 3 uM after 2 hrs by Western blot analysis. The experiment is classed as cell-based.
Experiment [15] shares this target. Put plainly: Inhibition of JAK1 in human NCI-H1975 cells assessed as reduction in STAT3 phosphorylation after 2 hrs. It is filed as cell-based.
Experiment [16] concerns the target T2, Tyrosine-protein kinase JAK2. Nature of the experiment: Inhibition of N-terminal GST-fused recombinant JAK2 (831 to 1132 residues) (unknown origin) expressed in insect cells using 5FAM-GEEPLYWSFPAKKK-NH2 as substrate by microfluidic capillary electrophoresis method.
The target in experiment [17] is Non-receptor tyrosine-protein kinase TYK2 (Homo sapiens, UniProt P29597). Nature of the experiment: Inhibition of N-terminal 6His-tagged human recombinant Tyk2.
For experiment [18], the target named is Cyclin-dependent kinase 2/cyclin E1 (Homo sapiens, UniProt P24941). Put plainly: Inhibition of N-terminal 6His-tagged human recombinant full length CDK2 (1 to 304 residues)/Cyclin E1 (1 to 410 residues) expressed in insect cells using FL-Ahx-QSPKKG-CONH2 as substrate by microfluidic capillary electrophoresis method.
The test system of experiment [19] is Mus musculus. Nature of the experiment: Inhibition of JAK1-mediated STAT3 phosphorylation in human NCI-H1975 cells xenografted in NCr nude mouse at 200 mg/kg, po administered as single dose after 1.5 hrs by Western blot analysis. It is filed as functional. (In general: Xenograft models place foreign cells or tissue in a host animal.)
For experiment [20], the system named is Mus musculus. Put plainly: Inhibition of JAK1-mediated STAT3 phosphorylation in human NCI-H1975 cells xenografted in NCr nude mouse at 200 mg/kg, po administered as single dose after 8 hrs by Western blot analysis. The experiment is classed as functional, organism-based.
Experiment [21] concerns the target Aurora kinase B (Homo sapiens, UniProt Q96GD4). Nature of the experiment: Inhibition of GST-INCENP activated N-terminal 6His-tagged human recombinant full length Aurora B (1 to 344 residues) expressed in baculovirus expression system using 5FAM-LRRASLG as substrate by microfluidic capillary electrophoresis method.

T1 sequence (P23458 whole entry, the tested form may be a part): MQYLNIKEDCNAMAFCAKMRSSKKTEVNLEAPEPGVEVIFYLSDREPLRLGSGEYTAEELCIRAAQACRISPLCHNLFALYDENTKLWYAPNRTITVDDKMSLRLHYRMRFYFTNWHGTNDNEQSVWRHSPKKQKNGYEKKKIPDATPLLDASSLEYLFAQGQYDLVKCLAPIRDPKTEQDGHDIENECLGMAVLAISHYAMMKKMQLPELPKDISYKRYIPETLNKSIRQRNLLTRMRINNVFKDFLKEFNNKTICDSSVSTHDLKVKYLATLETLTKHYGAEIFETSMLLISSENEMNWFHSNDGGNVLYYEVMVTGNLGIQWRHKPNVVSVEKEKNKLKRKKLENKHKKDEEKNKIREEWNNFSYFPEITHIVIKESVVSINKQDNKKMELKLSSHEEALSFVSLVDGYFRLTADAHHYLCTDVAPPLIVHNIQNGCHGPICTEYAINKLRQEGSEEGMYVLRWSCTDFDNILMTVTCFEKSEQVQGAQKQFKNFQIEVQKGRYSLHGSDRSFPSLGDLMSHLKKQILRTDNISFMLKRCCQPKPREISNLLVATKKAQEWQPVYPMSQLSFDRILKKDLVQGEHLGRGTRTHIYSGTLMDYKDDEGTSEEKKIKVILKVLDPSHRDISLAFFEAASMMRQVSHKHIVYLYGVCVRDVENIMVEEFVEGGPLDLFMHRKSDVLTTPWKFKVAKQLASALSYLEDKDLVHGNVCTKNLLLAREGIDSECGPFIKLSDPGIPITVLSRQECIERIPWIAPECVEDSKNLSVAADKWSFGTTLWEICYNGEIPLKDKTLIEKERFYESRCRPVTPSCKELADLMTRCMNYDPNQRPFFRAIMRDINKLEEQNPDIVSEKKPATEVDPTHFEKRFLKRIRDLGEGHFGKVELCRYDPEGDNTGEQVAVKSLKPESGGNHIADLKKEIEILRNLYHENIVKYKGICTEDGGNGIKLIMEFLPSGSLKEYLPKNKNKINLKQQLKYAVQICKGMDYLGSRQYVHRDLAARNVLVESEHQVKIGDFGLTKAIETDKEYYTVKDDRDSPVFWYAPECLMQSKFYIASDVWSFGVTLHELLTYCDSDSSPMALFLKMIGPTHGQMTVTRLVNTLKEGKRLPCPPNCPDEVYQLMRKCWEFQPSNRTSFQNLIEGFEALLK
T2 sequence (O60674 whole entry): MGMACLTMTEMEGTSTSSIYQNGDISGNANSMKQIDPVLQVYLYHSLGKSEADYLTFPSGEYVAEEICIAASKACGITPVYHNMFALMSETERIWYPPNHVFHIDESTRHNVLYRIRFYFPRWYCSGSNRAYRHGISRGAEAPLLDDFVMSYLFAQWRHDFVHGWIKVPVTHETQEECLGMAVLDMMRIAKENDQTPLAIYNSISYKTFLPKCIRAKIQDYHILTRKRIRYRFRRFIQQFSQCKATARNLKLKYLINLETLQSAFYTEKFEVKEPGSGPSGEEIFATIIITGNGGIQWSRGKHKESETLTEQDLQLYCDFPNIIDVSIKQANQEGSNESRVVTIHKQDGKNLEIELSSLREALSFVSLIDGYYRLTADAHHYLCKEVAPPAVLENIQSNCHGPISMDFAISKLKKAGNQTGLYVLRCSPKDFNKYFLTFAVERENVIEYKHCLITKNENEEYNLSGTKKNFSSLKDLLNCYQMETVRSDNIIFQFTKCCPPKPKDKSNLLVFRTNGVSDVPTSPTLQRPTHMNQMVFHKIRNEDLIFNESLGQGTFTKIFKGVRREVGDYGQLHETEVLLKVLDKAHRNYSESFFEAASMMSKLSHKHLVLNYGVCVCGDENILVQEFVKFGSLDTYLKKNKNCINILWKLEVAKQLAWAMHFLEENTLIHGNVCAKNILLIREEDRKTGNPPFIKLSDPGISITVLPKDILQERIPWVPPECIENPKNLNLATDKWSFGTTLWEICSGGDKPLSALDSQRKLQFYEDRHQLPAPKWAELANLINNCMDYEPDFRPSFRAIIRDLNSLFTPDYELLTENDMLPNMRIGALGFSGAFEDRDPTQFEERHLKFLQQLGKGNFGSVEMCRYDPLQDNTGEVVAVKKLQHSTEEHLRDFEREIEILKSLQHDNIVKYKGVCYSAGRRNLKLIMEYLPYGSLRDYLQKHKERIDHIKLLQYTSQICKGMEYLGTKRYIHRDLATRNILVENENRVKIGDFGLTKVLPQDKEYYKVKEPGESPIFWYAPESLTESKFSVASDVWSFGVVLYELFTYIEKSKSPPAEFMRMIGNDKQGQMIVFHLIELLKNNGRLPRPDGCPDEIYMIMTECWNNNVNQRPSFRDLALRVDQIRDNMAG
Non-receptor tyrosine-protein kinase TYK2, sequence (P29597 whole entry, the tested form may be a part): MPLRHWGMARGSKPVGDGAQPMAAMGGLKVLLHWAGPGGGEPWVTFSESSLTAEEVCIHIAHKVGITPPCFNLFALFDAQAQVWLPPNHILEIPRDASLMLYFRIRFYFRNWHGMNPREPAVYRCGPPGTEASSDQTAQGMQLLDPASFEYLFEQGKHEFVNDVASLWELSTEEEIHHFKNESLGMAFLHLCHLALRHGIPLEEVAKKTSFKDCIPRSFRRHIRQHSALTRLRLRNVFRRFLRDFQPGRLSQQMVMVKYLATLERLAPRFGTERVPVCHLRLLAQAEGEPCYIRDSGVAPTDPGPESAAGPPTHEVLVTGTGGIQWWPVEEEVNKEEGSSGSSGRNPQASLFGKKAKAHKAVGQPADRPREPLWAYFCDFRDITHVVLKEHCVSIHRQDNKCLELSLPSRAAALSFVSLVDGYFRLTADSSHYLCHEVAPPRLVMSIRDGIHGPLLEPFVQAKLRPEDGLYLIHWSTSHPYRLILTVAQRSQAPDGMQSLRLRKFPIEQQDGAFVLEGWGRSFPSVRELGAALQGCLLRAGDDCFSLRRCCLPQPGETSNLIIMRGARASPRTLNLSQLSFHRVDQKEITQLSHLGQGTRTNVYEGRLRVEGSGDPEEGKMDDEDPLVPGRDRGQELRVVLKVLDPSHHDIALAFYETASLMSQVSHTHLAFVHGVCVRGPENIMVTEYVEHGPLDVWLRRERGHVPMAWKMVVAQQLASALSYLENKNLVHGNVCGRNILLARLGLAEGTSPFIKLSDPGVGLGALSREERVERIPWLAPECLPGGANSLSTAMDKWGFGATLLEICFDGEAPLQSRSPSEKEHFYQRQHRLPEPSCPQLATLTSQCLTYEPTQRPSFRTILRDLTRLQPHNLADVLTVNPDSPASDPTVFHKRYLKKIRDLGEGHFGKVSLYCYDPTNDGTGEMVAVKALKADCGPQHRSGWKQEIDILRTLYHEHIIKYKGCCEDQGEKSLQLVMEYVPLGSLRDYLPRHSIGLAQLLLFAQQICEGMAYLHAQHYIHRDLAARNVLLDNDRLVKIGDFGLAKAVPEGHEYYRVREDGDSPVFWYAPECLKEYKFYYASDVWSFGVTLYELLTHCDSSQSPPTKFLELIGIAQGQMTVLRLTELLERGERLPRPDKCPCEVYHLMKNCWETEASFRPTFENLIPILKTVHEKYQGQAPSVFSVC
Aurora kinase B, sequence (Q96GD4 whole entry, the tested form may be a part): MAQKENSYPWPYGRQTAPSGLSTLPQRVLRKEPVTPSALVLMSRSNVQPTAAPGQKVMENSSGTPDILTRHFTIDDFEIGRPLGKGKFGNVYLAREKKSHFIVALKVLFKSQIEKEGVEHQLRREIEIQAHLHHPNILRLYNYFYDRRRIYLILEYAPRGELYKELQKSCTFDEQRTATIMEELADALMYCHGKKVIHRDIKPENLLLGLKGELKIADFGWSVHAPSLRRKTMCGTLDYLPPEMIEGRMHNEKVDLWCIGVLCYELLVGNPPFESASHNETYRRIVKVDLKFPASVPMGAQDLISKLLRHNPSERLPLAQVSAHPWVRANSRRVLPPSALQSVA

For the compound `Cc1cc(Nc2cc(N3CCN(C)CC3)nc(Sc3ccc(NC(=O)C4CC4)cc3)n2)n[nH]1`, the Activity worked out at 26.6% in experiment [1]; 18.2% in experiment [2]; 12.5% in [3]; 0.9% in experiment [4]; 60.3% in experiment [5]; 1.6% in experiment [6]. Further, the Activity worked out at 4.5% in experiment [7], 2.6% in [8], 15.5% in [9] and 57.3% in experiment [10].

As for `COc1cc(F)c(-c2nc3c(NCC4CCNCC4)c(Cl)cnc3[nH]2)cc1OC`, the IC50 in experiment [11] was 22 nM; in experiment [13] it was 8300 nM; in experiment [15], 39 nM; in experiment [16], > 22000 nM; in [17] it was 28000 nM; in experiment [18], 114 nM. Further, the IC50 in [21] came to 132 nM. In addition, the inhibition result in [12] and in experiment [20] was “inactive” each time. For the same compound, the inhibition result in experiment [14] was “Active”. The Activity came to 7.9% in experiment [1]; 10.8% in experiment [2]; 2.5% in [3]; 6.5% in experiment [4]; 38.9% in experiment [5]; 7% in experiment [6]. Moreover, the Activity is 30.3% in [7], 56.1% in experiment [8], 13.1% in experiment [9] and 27% in experiment [10]. The compound further had an inhibition in vivo at 200 mg/kg in experiment [19] of 80%.
